Measurements reported in paper PMC10509173, “Deep learning driven de novo drug design based on gastric proton pump structures” (Communications Biology, 2023).
Several values for one entry are separate records, joined by “and”; a condition that tells them apart may be missing. Equal values may be shown once.

Target: H+,K+-ATPase (Sus scrofa, UniProt P19156)
Assay: Dose-dependent inhibition of H+,K+-ATPase activity, membrane fractions
Conditions: for H+,K+-ATPase activity, raw data of dose-dependent inhibition: single replicate values
[1] = [PCAB] -3.30103 (log, unit not given)
[2] = [PCAB] -3.52288 (log, unit not given)
[3] = [PCAB] -4 (log, unit not given)
[4] = [PCAB] -4.30103 (log, unit not given)
[5] = [PCAB] -4.52288 (log, unit not given)
[6] = [PCAB] -5 (log, unit not given)
[7] = [PCAB] -5.52288 (log, unit not given)
[8] = [PCAB] -6 (log, unit not given)
[9] = [PCAB] -6.30103 (log, unit not given)
[10] = [PCAB] -7 (log, unit not given)
[11] = [PCAB] -8 (log, unit not given)
[12] = [PCAB] -11 (log, unit not given; possibly placeholder for no compound)

H+,K+-ATPase, sequence (P19156 2-1034 limits assumed): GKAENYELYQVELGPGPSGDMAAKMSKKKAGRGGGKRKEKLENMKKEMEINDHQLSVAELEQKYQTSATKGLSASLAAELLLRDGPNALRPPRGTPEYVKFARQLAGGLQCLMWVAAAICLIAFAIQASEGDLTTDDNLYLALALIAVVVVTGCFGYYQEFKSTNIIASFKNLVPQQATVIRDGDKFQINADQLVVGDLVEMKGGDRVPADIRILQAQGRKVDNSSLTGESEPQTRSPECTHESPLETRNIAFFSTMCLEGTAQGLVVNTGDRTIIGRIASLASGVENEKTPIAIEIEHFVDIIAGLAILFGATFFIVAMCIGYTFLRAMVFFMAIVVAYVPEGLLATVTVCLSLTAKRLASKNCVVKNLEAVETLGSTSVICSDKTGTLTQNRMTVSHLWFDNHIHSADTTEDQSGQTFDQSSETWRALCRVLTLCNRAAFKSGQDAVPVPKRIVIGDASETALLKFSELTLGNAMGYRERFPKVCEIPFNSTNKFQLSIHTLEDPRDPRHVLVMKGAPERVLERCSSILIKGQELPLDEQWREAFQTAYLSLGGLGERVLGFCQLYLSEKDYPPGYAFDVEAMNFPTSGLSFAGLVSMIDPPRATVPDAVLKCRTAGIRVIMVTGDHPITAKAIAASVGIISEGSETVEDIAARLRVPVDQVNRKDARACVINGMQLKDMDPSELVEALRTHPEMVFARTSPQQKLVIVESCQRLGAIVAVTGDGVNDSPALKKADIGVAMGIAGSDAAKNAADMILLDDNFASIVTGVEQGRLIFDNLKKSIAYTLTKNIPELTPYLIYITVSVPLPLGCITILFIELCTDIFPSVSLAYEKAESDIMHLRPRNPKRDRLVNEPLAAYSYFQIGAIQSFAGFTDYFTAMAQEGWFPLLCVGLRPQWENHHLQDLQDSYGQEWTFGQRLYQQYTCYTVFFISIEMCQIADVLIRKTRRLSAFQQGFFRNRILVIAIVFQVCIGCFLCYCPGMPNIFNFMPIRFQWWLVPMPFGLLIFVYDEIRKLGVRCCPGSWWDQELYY
H+,K+-ATPase, sequence (P18434 whole entry partner): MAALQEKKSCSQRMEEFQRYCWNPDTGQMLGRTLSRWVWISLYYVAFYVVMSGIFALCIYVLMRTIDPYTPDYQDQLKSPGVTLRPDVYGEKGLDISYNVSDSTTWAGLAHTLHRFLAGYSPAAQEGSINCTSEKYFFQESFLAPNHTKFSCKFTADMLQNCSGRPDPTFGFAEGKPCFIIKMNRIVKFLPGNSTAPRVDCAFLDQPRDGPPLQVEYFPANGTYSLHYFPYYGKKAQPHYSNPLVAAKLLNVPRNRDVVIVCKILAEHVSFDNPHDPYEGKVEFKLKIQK

| Compound | IC50 | H+,K+-ATPase activity, raw data of dose-dependent inhibition [1] | H+,K+-ATPase activity, raw data of dose-dependent inhibition [2] | H+,K+-ATPase activity, raw data of dose-dependent inhibition [3] | H+,K+-ATPase activity, raw data of dose-dependent inhibition [4] | H+,K+-ATPase activity, raw data of dose-dependent inhibition [5] | H+,K+-ATPase activity, raw data of dose-dependent inhibition [6] | H+,K+-ATPase activity, raw data of dose-dependent inhibition [7] | H+,K+-ATPase activity, raw data of dose-dependent inhibition [8] | H+,K+-ATPase activity, raw data of dose-dependent inhibition [9] | H+,K+-ATPase activity, raw data of dose-dependent inhibition [10] | H+,K+-ATPase activity, raw data of dose-dependent inhibition [11] | H+,K+-ATPase activity, raw data of dose-dependent inhibition [12] |
| --- | --- | --- | --- | --- | --- | --- | --- | --- | --- | --- | --- | --- | --- |
| CN(C)Cc1ccc(OCc2ccccc2OCc2ccccc2)cc1 [DQ-11] | 5.57 ± 0.45 µM | -9.05 and -9.17 and -0.38 and -0.55 and 0.75 and 0.18 | -7.01 and -7.07 and 0.86 and 1.01 and 0.22 and 0.76 | 0.73 and 0.95 and 7.54 and 7.57 and 6.64 and 7.22 | 5.75 and 5.69 and 7.96 (2×) and 7.99 and 7.73 | 10.92 and 10.91 and 16.8 and 13.24 and 16.06 and 16.58 | 34.05 and 32.3 and 39.91 and 37.9 and 37.76 and 40.04 | 63.88 and 61.74 and 70.3 and 67.49 and 63.1 and 68.35 | 89.53 and 87.88 and 83.74 and 79.92 and 83.72 and 84.81 | 90.62 and 87.46 and 94.24 and 93.36 and 93.48 and 92.73 | 95.63 and 90.8 and 99.34 and 102.28 and 88.88 and 100.71 | 97.6 and 94.94 and 102 and 102.29 and 100.82 and 103.84 | 102.26 and 95.06 and 98.26 and 100.19 and 96.56 and 106.72 |
| CNCC#CCn1ccc2cccc(C#Cc3ccccc3)c21 [DQ-14] | > 120 µM | 27.73 and 26.74 and 25.35 and 26.06 | 28.44 and 23.96 and 24.12 and 24.35 | 60.7 and 61.39 and 60.36 and 56.79 | 84.92 and 80.56 and 95.68 and 93.2 and 92.03 and 93.46 | 87.04 and 84.8 and 98.89 and 98.98 and 99.17 and 99.96 | 106.23 and 102.41 and 111.55 and 99.92 and 109.43 and 110.94 | 106.37 and 107.48 and 116.43 and 116.24 and 113.84 and 116.41 | 99.88 and 98.19 and 102.47 and 100.9 and 103.05 and 104.28 | 101.13 and 91.4 and 101.1 and 101.3 | 93.06 and 99.72 and 100.85 and 100.56 and 98.57 | 95.47 and 97.96 and 97.95 and 99.07 and 96.42 and 98.64 | 103.16 and 99.44 and 101.23 and 99.08 and 99.88 and 99.77 |
| OCc1ccc(OCc2ccccc2OCc2ccccc2)cc1 [DQ-10] | 292 ± 67 µM | 43.38 and 44.41 and 45.92 and 45.13 and 45.42 and 45.93 | 45.74 and 44.58 and 47.45 and 47.39 and 47.18 and 50.77 | 56.05 and 53.52 and 55.98 and 54.18 and 54.88 and 57.9 | 76.31 and 75.72 and 105.39 and 105.73 and 101.62 and 104.74 | 93.17 and 93.5 and 97.58 and 97.31 and 105.67 and 98.13 | 105.05 and 103.17 and 107.45 and 104.86 and 105.64 and 102 | 97.45 and 97.17 and 101.99 and 103.63 and 102.59 and 100.01 | 100.27 and 101.99 and 106.56 and 102.96 and 101.68 and 100.85 | 96.05 and 88 and 94.05 and 95.4 and 97.95 and 97.13 | 93.18 and 94.04 and 98.08 and 97.4 and 96.62 and 95.63 | 97.94 and 95.96 and 97.5 and 99.04 and 99.69 and 102.43 | 97.84 and 98.7 and 100.06 and 101.42 and 100.78 and 96 |

Further lines, with some results ahead:

| IC50 | Compound | H+,K+-ATPase activity, raw data of dose-dependent inhibition [1] | H+,K+-ATPase activity, raw data of dose-dependent inhibition [2] | H+,K+-ATPase activity, raw data of dose-dependent inhibition [3] | H+,K+-ATPase activity, raw data of dose-dependent inhibition [4] | H+,K+-ATPase activity, raw data of dose-dependent inhibition [5] | H+,K+-ATPase activity, raw data of dose-dependent inhibition [6] | H+,K+-ATPase activity, raw data of dose-dependent inhibition [7] | H+,K+-ATPase activity, raw data of dose-dependent inhibition [8] | H+,K+-ATPase activity, raw data of dose-dependent inhibition [9] | H+,K+-ATPase activity, raw data of dose-dependent inhibition [10] | H+,K+-ATPase activity, raw data of dose-dependent inhibition [11] | H+,K+-ATPase activity, raw data of dose-dependent inhibition [12] |
| --- | --- | --- | --- | --- | --- | --- | --- | --- | --- | --- | --- | --- | --- |
| 3.52 ± 0.22 µM | CNCc1ccc(OCc2c(Cl)cccc2OCc2ccccc2)cc1 [DQ-19] | -0.65 and -0.09 and -0.18 (2×) and 0.39 and -0.03 | 1.38 and 2.32 and 2.04 and 1.91 and 2.46 and 2.13 | 10.36 and 10.46 and 8.18 and 7.73 and 7.75 and 7.91 | 16.41 and 15.72 and 6.63 and 6.46 and 5.99 and 5.93 | 18.62 (2×) and 17.28 and 17.05 and 16.78 and 16.42 | 27.04 and 27.03 and 26.28 and 26.11 and 26 and 25.46 | 56.8 and 57.52 and 52.1 and 50.99 and 52.47 and 50.98 | 77.41 and 78.78 and 71.45 and 74.76 and 72.12 and 73.47 | 84.8 and 85.13 and 83.98 and 84.02 and 82.9 and 83.28 | 91.5 and 92.21 and 96.4 and 96.06 and 98.84 and 94.11 | 95.21 and 97 and 100.13 and 98.68 and 100.43 and 97.42 | 95.94 and 97.66 and 99.42 and 99.81 and 100.11 and 99.03 |
| 33.9 ± 3.8 µM | CNCC#CCOCc1cc(Cl)ccc1-c1ccc(Cl)c(F)c1 [DQ-04] | 0.25 and -0.25 and -0.38 and 0.38 and -0.3 and -3.39 | 1.96 and 3.36 and 3.54 and 3.3 and 3.08 and 0.78 | 36.71 and 36.26 and 38.13 and 35.18 and 35.01 and 32.77 | 44 and 42.16 and 21.74 and 21.63 and 20.87 and 17.27 | 54.64 and 55.71 and 47.64 and 52.61 and 61.59 and 63.39 | 84.91 and 81.14 and 76.84 and 80.91 and 85.5 and 81.75 | 98.14 and 98.72 and 86.17 and 97.35 and 92.86 and 93.01 | 100.43 and 99.64 (2×) and 95.5 and 94.06 and 98.22 | 97.37 and 99.94 and 104.98 and 87.87 and 104.85 and 101.28 | 98.23 and 101.36 and 99.76 and 99.57 and 100.69 and 98.11 | 101.57 and 100.61 and 99.59 and 102.17 and 101.49 and 97.6 | 101.41 and 100.27 and 102.04 and 101.19 and 98.33 and 99.11 |
| 49.5 ± 4.9 µM | CNCC#CCn1ccc2cccc(C#Cc3ccc(C)cc3)c21 [DQ-15] | -1.23 and -0.26 and -1.44 and 5.07 and -1.8 and 2.8 | 9.09 and 3.72 and 0.29 and -0.76 and -0.99 and -0.84 | 11.93 and 13.25 and 13.98 and 12.44 and 11.99 | 53.33 and 67.11 and 32 and 29.38 and 36.06 and 36.79 | 62.91 and 87.02 and 102.29 and 102.11 and 98.15 and 100.59 | 104.78 and 109.76 and 109.66 and 114.82 and 111.02 and 110.28 | 106.28 and 113.44 and 111.13 and 112.65 and 113.7 and 115.05 | 99.17 and 105.14 and 103.4 and 101.49 and 105.23 and 103.02 | 96.59 and 101.3 and 102.53 and 104.37 and 103.52 and 105.02 | 93.78 and 100.85 and 99.97 and 100.06 and 104.3 and 100.32 | 98.75 and 101.8 and 99.85 and 100.74 and 97.88 and 98.55 | 102.57 and 105.77 and 99.66 and 98.21 and 98.11 and 102.51 |
| 0.28 ± 0.02 µM | CNCc1ccc(OCc2ccccc2OCc2ccc(Cl)cc2)cc1 [DQ-21] | -1.36 and -1 and -1.49 and 3.72 and -1.45 and 1.58 | 0.39 and 0.54 and 0.08 and 0.18 and 0.41 and 0.55 | 3.33 and 3.13 and 3.68 and 3.03 and 3.2 and 3.37 | 4.45 and 4.77 and 4.44 and 4.84 and 4.43 and 4.67 | 6.47 and 6.44 and 6.31 and 6.43 and 6.29 and 6.56 | 7.76 and 7.75 and 7.99 (2×) and 7.89 and 7.77 | 11.96 and 12.26 and 11.83 and 11.89 and 11.45 and 12.14 | 23.55 and 22.68 and 22.58 and 21.83 and 22.75 and 23.52 | 36.33 and 33.31 and 34.67 and 35.15 and 34.9 and 34.74 | 76.22 and 75.51 and 71.53 and 74.65 and 69.37 | 101.03 and 99.43 and 98.88 and 100.2 and 98.66 and 98.58 | 102.52 and 101.98 and 100.28 and 101.48 and 100.07 and 102.84 |
